The source of these data is patent US9795139B2, “Molecules having pesticidal utility, and intermediates, compositions, and processes, related thereto” (priority 2015, dated 2017).

Holding throughout (format): in vivo
The test system of series [1] is Beet Armyworm (Spodoptera exigua, LAPHEG). Kind of series: Bioassay on Beet Armyworm (BAW), 128-well diet tray assay. Conditions: 168 h, 50 μg/cm^2 on artificial diet, second instar larvae, 25° C., five to seven days, average of eight wells, read-out: BAW % Control (or Mortality) rating. The procedure, abridged:
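Second instar larvae were exposed to diet treated at 50 μg/cm^2 for five to seven days at 25° C.; mortality was averaged over eight wells.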

Series [2] deals with Green Peach Aphid (Myzus persicae, MYZUPE). Kind of series: Bioassay on Green Peach Aphid (GPA), foliar spray on cabbage seedlings. Conditions: 72 h, 200 ppm foliar spray on cabbage seedlings, three days, Abbott corrected % control, read-out: GPA % Control (or Mortality) rating. As for the experimental part:
Certain molecules disclosed in this document were tested against GPA using procedures described in the following example. In the reporting of the results, the “GPA & YFM Rating Table” was used (See Table Section).
Cabbage seedlings grown in 3-inch pots, with 2-3 small (3-5 cm) true leaves, were used as test substrate. The seedlings were infested with 20-50 GPA (wingless adult and nymph stages) one day prior to chemical application. Four pots with individual seedlings were used for each treatment. Test molecules (2 mg) were dissolved in 2 mL of acetone/methanol (1:1) solvent, forming stock solutions of 1000 ppm test molecule.
The stock solutions were diluted 5× with 0.025% Tween 20 in water to obtain the solution at 200 ppm test molecule. A hand-held aspirator-type sprayer was used for spraying a solution to both sides of […] leaves until runoff. Reference plants (solvent check) were sprayed with the diluent only containing 20% by volume of acetone/methanol (1:1) solvent. Treated plants were held in a holding room for three days at approximately 25° C. and ambient relative humidity (RH) prior to grading. Evaluation was conducted by counting the number of live aphids per plant under a microscope. Percent control was measured using Abbott's correction formula (W. S. Abbott, “A Method of Computing the Effectiveness of an Insecticide” J. Econ. Entomol. 18 (1925), pp. 265-267) as follows. Corrected % Control=100*(X−Y)/X where X=No. of live aphids on solvent check plants and Y=No. of live aphids on treated plants. The results are indicated in the table entitled “Table ABC: Biological Results” (See Table Section).

Series [3] deals with Cabbage Looper (Trichoplusia ni, TRIPNI). Kind of series: Bioassay on Cabbage Looper (CL), 128-well diet tray assay. Conditions: 168 h, 50 μg/cm^2 on artificial diet, second instar larvae, 25° C., five to seven days, average of eight wells, read-out: CL % Control (or Mortality) rating. The procedure, abridged: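 Mortality of second instar larvae exposed to diet coated with 50 μg/cm^2 compound (acetone-water 90:10 vehicle, dried); 25° C., 5–7 days.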

For series [4], the system named is Yellow Fever Mosquito (Aedes aegypti, AEDSAE). Conditions: about 1 day-old larvae, 96-well plate from 4000 ppm DMSO master, 3 days at room temperature. An outline of the steps: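 Aedes aegypti larvae (about 1 day old) in liver-powder water were added to plates dispensed from DMSO master plates (4000 ppm stock) diluted with 90:10 water/acetone; six replicate plates per master. Lidded plates were held at room temperature for 3 days, then each well was scored for mortality.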

Turning to `O=C(NC1CC(F)(F)C1)c1cc(NC(=O)[C@H]2[C@H](c3cc(Cl)cc(Cl)c3)C2(Cl)Cl)ccc1Cl` (relative stereo) [Molecule F5, trans-2-Chloro-5-(2,2-dichloro-3-(3,5-dichlorophenyl)cyclopropanecarboxamido)-N-(3,3-difluorocyclobutyl)benzamide], the mortality at 50 µg/cm2 in series [1] and in series [3] was 50 to 100% throughout. Besides, the mortality at 200 ppm in series [2] is 80 to 100%. In series [4], the “YFM % Control (or Mortality) rating” value was “A (80-100)”.

The mortality is the percentage killed.
